According to ChEMBL document CHEMBL1201862, “PubChem BioAssay data set” (2004):
Active and inactive are the calls of the source.

Assays:
Cytochrome P450 2C9 = Cytochrome P450 2C9 (Homo sapiens, UniProt P11712)
Cytochrome P450 1A2 = biological target: T1, Cytochrome P450 1A2 (Homo sapiens, UniProt P05177);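 further: PubChem cytochrome P450 panel assay, CYP1A2 panel member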
T1 sequence (P05177 whole entry): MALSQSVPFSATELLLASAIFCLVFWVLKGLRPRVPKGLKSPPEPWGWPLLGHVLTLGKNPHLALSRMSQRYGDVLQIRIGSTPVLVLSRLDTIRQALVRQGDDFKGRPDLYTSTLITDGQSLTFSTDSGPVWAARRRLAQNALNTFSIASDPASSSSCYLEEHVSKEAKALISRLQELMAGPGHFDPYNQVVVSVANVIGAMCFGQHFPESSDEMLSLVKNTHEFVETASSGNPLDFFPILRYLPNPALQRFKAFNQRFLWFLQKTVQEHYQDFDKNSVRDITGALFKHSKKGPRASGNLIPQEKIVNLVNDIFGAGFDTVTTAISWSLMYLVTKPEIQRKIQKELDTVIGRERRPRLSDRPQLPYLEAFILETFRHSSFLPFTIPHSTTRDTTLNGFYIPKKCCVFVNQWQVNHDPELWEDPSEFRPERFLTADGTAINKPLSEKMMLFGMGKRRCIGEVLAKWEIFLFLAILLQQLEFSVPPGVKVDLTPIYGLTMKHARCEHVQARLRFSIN

Cytochrome P450 3A4 = Cytochrome P450 3A4 (Homo sapiens, UniProt P08684);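 further: CYP3A4 tested as one member of a cytochrome P450 panel screen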
[1] = Luminescence Cell-Based Dose Confirmation HTS to Identify Inhibitors of Platelet Dense Granule Release. [Related pubchem assays: 1663 (Primary HTS), 1678 (Summary of Project)]; type: functional
[2] = biological target: Luciferin 4-monooxygenase (Photinus pyralis, UniProt P08659); experiment: inhibition of purified Photinus pyralis luciferase – biochemical, luminescence, dose response (AID 1891)
cells = type: functional
[3] = biological target: T2, Corticotropin-releasing factor receptor 2/Corticotropin-releasing factor-binding protein (Homo sapiens, UniProt P24387+Q13324); experiment: activators of CRF receptor 2 with binding protein – uHTS hits, confirmation (AID 602473); type: functional; details: read-out: EC50_Mean
T2 sequence (Q13324 whole entry): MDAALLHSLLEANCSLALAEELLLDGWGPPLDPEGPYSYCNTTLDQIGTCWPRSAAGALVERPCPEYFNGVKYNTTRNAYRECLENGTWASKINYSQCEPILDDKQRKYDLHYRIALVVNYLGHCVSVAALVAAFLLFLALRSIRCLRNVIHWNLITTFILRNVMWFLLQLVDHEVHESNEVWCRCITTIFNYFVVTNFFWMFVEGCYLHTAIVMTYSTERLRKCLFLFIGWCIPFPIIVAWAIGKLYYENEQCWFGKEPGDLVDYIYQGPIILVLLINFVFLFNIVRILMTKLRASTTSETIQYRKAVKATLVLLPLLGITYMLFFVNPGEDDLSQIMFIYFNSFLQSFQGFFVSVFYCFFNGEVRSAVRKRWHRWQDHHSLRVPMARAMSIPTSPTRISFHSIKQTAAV
T2 sequence (P24387 whole entry): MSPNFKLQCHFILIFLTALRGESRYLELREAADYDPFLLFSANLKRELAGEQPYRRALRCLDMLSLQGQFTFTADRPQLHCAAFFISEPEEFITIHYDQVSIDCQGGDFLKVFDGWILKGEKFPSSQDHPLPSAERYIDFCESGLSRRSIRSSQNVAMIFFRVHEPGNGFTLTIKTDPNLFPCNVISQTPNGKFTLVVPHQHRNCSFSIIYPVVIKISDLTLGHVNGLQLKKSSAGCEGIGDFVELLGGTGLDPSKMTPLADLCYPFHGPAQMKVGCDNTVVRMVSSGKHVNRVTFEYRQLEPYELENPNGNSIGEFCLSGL

Cytochrome P450 2D6 = Cytochrome P450 2D6 (Homo sapiens, UniProt P10635);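 further: CYP2D6 member of a cytochrome P450 panel assay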
[4] = viability of PTEN-deleted HCT116 cells – cell-based, HCT116 PTEN knockout, dose response (AID 1047); type: functional;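 further: HCT116 colon tumor cells with PTEN knocked out; cells exposed to compound for 60 hours before readout; potency for loss of cell viability measured by luminescence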
[5] = viability of HCT116 lacking mutant beta-catenin – cell-based, human colon tumor, dose response (AID 1045); type: functional;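 further: HCT116 colon tumor cells with beta catenin knocked out; cells exposed to compound for 60 hours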
[6] = reduction of Shn3 3'UTR-driven luciferase in osteoblasts – cell-based, Clone20 osteoblasts, firefly luciferase, cherry-picked, dose response (AID 624132); type: functional;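 further: firefly luciferase luminescence from reporter carrying the Shn3 3'UTR in osteoblasts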
[7] = non-specific 3'UTR reporter inhibition in Clone20-Shn3RL – cell-based, Renilla luciferase, cherry-picked, counter-screen for Shn3 inhibitor project, dose response (AID 624133); type: functional
Streptokinase A = biological target: T3, Streptokinase A (Streptococcus pyogenes serotype M1, UniProt P10520); experiment: viability-normalized secreted streptokinase activity reduction – plasminogen activation absorbance, OD405, dose response (AID 1914); type: functional, Streptococcus pyogenes M1 GAS;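 further: secreted streptokinase activity via plasminogen activation per viability signal from cell pellet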
T3 sequence (P10520 whole entry): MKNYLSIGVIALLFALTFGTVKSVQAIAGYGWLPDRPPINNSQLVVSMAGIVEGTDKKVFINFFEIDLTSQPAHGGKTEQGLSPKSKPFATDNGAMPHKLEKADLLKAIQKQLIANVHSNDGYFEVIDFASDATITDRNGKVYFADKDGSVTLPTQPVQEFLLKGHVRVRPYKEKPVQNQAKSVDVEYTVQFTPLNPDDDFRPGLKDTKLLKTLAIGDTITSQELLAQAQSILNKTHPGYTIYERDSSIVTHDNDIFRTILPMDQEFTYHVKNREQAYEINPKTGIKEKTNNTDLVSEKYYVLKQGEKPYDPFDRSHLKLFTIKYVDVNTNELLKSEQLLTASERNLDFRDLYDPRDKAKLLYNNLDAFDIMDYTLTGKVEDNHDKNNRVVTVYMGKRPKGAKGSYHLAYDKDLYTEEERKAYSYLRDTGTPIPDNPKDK

[8] = biological target: T4, Calpain-2 catalytic subunit (Sus scrofa, UniProt P43367); experiment: m-calpain protease blockers, concentration series – biochemical, fluorogenic peptide substrate, dose response (AID 1420); type: functional
T4 sequence (P43367 whole entry): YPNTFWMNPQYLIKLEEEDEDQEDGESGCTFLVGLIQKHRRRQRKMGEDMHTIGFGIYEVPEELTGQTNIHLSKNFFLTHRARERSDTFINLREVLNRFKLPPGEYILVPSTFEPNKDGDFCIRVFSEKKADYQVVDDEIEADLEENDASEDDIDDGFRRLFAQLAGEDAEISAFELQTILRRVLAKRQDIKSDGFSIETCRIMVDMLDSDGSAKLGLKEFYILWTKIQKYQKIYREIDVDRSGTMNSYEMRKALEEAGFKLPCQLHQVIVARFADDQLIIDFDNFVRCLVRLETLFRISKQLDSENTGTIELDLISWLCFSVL

Streptococcus = experiment: GAS UMAA2166 growth inhibition – luminescence, BacTiterGlo, counter-screen for streptokinase expression inhibitor project, dose response (AID 1915); type: functional, organism-based;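 further: potency for reduction of bacterial viability or growth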
[9] = tested on: Streptococcus sp. 'group A'; experiment: Streptococcus pyogenes SK(-)GAS viability under kanamycin – luminescence, BacTiterGlo, confirmation, counter-screen for streptokinase expression inhibitor project, dose response (AID 1900); type: functional, organism-based
[10] = NIH-3T3 fibroblast cytotoxicity, dose response, cytotoxicity control, cell-based, fluorescence, Alamar Blue, secondary assay (AID 2327); type: functional;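 further: NIH-3T3 mouse fibroblasts cultured with fluconazole at 8 µg/mL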
[11] = fluconazole-exposed Candida albicans growth modulators – fluorescence, retest, confirmation (AID 2467); type: functional, cell-based

Luciferin 4-monooxygenase, sequence (P08659 whole entry): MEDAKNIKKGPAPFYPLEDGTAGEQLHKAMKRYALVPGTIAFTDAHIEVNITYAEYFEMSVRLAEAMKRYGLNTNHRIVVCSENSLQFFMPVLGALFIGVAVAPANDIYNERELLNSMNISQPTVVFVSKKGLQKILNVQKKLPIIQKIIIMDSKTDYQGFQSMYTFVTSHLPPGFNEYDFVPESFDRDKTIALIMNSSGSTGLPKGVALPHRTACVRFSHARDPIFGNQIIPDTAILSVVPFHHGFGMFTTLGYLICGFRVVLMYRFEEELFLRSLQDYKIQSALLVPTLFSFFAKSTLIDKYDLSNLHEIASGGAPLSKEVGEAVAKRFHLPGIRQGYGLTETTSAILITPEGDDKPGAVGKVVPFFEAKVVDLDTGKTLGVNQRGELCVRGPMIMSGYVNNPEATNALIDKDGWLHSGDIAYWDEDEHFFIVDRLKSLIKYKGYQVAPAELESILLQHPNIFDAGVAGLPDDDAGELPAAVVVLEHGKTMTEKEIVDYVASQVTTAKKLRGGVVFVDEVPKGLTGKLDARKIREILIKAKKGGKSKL
Cytochrome P450 2C9, sequence (P11712 whole entry): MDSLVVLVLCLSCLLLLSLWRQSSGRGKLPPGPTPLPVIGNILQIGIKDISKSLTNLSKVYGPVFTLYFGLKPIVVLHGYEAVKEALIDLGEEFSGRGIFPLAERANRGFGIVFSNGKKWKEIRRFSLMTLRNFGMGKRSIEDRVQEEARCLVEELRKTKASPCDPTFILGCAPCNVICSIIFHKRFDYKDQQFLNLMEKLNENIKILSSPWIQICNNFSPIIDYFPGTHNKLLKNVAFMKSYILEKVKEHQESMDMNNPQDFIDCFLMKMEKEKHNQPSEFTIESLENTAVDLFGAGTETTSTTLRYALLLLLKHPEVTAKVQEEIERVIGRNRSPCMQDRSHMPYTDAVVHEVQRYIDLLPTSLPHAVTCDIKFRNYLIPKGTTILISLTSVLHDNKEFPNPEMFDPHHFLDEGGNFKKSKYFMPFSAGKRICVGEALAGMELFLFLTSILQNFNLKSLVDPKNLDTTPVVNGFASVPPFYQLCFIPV
Cytochrome P450 2D6, sequence (P10635 whole entry): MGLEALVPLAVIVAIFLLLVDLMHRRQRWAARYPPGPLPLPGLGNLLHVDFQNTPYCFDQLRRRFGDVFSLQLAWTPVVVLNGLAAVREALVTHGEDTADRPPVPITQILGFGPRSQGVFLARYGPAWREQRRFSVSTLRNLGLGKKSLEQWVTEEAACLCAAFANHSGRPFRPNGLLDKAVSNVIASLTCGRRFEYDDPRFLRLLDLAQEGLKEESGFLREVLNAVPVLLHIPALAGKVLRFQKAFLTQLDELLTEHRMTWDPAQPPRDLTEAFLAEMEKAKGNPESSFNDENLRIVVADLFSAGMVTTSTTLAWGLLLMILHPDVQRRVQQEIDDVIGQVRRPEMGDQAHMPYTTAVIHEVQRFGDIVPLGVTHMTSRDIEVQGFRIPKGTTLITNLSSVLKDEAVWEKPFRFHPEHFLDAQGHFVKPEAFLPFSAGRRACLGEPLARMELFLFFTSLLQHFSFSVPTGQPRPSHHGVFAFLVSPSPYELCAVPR
Cytochrome P450 3A4, sequence (P08684 whole entry): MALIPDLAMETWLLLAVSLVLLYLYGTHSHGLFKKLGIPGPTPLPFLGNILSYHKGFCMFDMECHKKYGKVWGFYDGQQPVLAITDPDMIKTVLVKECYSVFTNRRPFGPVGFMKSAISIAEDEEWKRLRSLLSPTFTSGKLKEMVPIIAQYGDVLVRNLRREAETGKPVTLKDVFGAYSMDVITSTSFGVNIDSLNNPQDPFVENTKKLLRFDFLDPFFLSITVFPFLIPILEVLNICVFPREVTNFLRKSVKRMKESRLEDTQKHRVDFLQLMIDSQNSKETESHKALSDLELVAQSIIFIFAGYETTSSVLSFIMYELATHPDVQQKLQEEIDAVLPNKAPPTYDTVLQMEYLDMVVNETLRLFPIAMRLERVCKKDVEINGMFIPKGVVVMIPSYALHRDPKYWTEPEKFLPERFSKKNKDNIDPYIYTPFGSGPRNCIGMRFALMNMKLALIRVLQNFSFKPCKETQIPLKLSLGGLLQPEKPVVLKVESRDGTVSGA

O=C(Nc1cccc(Br)c1)/C(=C\c1cccnc1)NC(=O)c1ccco1
AC50 (Cytochrome P450 2C9): 39.8 µM (inconclusive)
AC50 (Cytochrome P450 1A2): 31.6 µM (inconclusive)

N#CCCn1c(=O)c(-c2ccc(Cl)cc2)nc2cnc(N3CCNCC3)nc21
AC50 (Cytochrome P450 3A4): 25.1 µM (inconclusive)

CC1(C)S[C@@H]2[C@H](C(=O)O)N=C(Cc3ccccc3)N2[C@H]1C(=O)O
AC50 (Cytochrome P450 1A2): 6.31 µM (inconclusive)

Cc1cc(C)c(C)c(OCC(O)CN2CCN(c3ccccn3)CC2)c1 (stereo not drawn)
EC50 [1]: > 112 µM (not active)
EC50 [2]: > 112 µM (not active)

Cc1nc2ncnn2c(C)c1CCC(=O)NCCC1=CCCCC1
AC50 (Cytochrome P450 3A4): 15.8 µM (inconclusive)
AC50 (Cytochrome P450 2C9): 14.1 µM (inconclusive)

O=c1c(-c2ccccc2)nc2cnc(N3CCOCC3)nc2n1Cc1cccs1
AC50 (Cytochrome P450 2C9): 20 µM (inconclusive)
AC50 (Cytochrome P450 1A2): 2.51 µM (inconclusive)

Cc1cc(-n2ccc(=O)[nH]c2=O)nc(-c2ccccc2)n1
EC50 [1]: 15.4 µM (active)
EC50 [2]: > 112 µM (not active)

COc1ccc(CC(=O)Nc2ccc(-c3cn4ccccc4n3)cc2)cc1OC
EC50 [1]: > 112 µM (not active)
EC50 [2]: > 112 µM (not active)

Cc1cccc(Cc2cnc(NC(=O)C3=NCCN3)s2)c1
IC50 (cells): 4.6 µM (active)

COc1ccc(Oc2nc(C)cc(C)c2S(=O)(=O)c2ccc(C)cc2)cc1
AC50 (Cytochrome P450 3A4): 1.12 µM (inconclusive)

CC(C)NC(=S)NC(=O)c1ccc(-c2ccccc2)cc1
EC50 [3]: > 53 µM (inactive)

CC(C)Oc1cccnc1N(C)C1CCN(Cc2ccccc2)CC1
AC50 (Cytochrome P450 3A4): 15.8 µM (inconclusive)

COc1cc(OC)cc(C(=O)N/N=C/c2ccc(OC)c(COc3ccc(F)cc3)c2)c1
EC50 [3]: > 53 µM (inactive)

O=c1c(-c2ccc(F)cc2)nc2cnc(N3CCOCC3)nc2n1Cc1ccc(F)cc1
AC50 (Cytochrome P450 2D6): 39.8 µM (inconclusive)
AC50 (Cytochrome P450 1A2): 20 µM (inconclusive)

O=C(Nc1cccc(C(F)(F)F)c1)N(Cc1ccc(Cl)cc1)CC(O)C(F)(F)F (stereo not drawn)
AC50 (Cytochrome P450 3A4): 22.4 µM (inconclusive)
EC50 [4]: 19.6 µM (active)
EC50 [5]: 23.8 µM (active)

Cc1ccc(CNC(=O)c2cc(-c3ccccc3C)nn2CC2CC(c3cccnc3)=NO2)cc1 (stereo not drawn)
AC50 [6]: > 70 µM (inactive)
AC50 [7]: 29 µM (active)

O=C(SCc1cccc2ccccc12)c1ccc(Cl)cc1
AC50 (Cytochrome P450 1A2): 0.794 µM (inconclusive)

COc1ccc(C(=O)N2CCC3(CCCN(c4ncccn4)C3)CC2)cc1
AC50 (Cytochrome P450 3A4): 39.8 µM (inconclusive)
AC50 (Cytochrome P450 2D6): 31.6 µM (inconclusive)
AC50 (Cytochrome P450 1A2): 20 µM (inconclusive)

O=[N+]([O-])c1cc(C(F)(F)F)ccc1NCCNC(=S)Nc1ccc(Cl)cc1
EC50 (Streptokinase A): > 150 µM (not active)
IC50 [8]: 7.92 µM (not active)

O=C(CSc1nnc(SCc2ccc(F)cc2)s1)Nc1ccc(C(=O)O)cc1
EC50 [1]: 39.4 µM (active)
EC50 [2]: > 112 µM (not active)

Cc1cccc(Oc2ccc(NC(=O)c3ccccc3C(=O)O)cc2)c1C
EC50 [3]: 8.97 µM (active)

NS(=O)(=O)c1ccc(/N=N\c2nc3c(O)nc(O)nc3[nH]2)cc1
AC50 (Cytochrome P450 3A4): 0.631 µM (inconclusive)

O=C(CN1CCN(c2ccccc2)CC1)N1N=CCC1c1ccccc1 (stereo not drawn)
EC50 [1]: > 112 µM (not active)
EC50 [2]: > 112 µM (not active)

O=C(NCC1(N2CCCCC2)CCCCC1)c1ccc(NS(=O)(=O)c2ccc(F)cc2)cc1
EC50 [1]: > 112 µM (not active)
EC50 [2]: > 112 µM (not active)

CC(C)OC(=O)c1c(NS(=O)(=O)c2ccccc2)sc2c1CCCC2
EC50 (Streptococcus): 7.93 µM (active)
EC50 (Streptokinase A): > 150 µM (not active)
EC50 [3]: 14 µM (active)
EC50 [9]: 3.69 µM (active)

Cc1noc(NS(=O)(=O)c2ccc(NC(=O)c3ccc(Br)o3)cc2)c1C
AC50 (Cytochrome P450 3A4): 39.8 µM (inconclusive)
AC50 (Cytochrome P450 2C9): 14.1 µM (inconclusive)

O=C(NCc1ccc(Cl)cc1)c1n[nH]c([N+](=O)[O-])c1Cl
EC50 [10]: > 160 µM (inactive)
EC50 [11]: 0.123 µM (active)

CCOC(=O)COc1ccc2c(=O)c(-c3ccccc3)coc2c1
IC50 (cells): < 0.1 µM (active)

COc1ccc(OC)c(NC(=O)CC(Cc2ccccc2OC)C(=O)O)c1 (stereo not drawn)
AC50 (Cytochrome P450 1A2): 0.0316 µM (inconclusive)

COc1ccccc1CNCc1cccs1
AC50 (Cytochrome P450 3A4): 17.8 µM (inconclusive)

Cc1cccc(NC(=O)CNC(=O)COC(=O)CCS(=O)(=O)c2ccccc2)c1C
EC50 [1]: > 112 µM (not active)
EC50 [2]: > 112 µM (not active)

Cc1c(OCC(=O)N2CCN(c3ccccc3)CC2)ccc2c3c(c(=O)oc12)CCCC3
EC50 [1]: > 112 µM (not active)
EC50 [2]: > 112 µM (not active)

COc1cc2c(cc1OC)CN(CCC(=O)c1ccc(Br)cc1)CC2
IC50 (cells): 16.5 µM (active)

N[C@H](C(=O)O)c1cccc(O)c1
AC50 (Cytochrome P450 1A2): 39.8 µM (inconclusive)

COc1cccc(C2C3=C(CC(C)(C)CC3=O)OC(N)=C2[N+](=O)[O-])c1 (stereo not drawn)
AC50 (Cytochrome P450 3A4): 15.8 µM (inconclusive)
AC50 (Cytochrome P450 2C9): 12.6 µM (inconclusive)

CC(C)N1CCC(=NNC(=O)c2ccc(Br)o2)CC1
AC50 (Cytochrome P450 2D6): 10 µM (inconclusive)
AC50 (Cytochrome P450 1A2): 17.8 µM (inconclusive)

COc1ccc2cc(C(=O)C3CCCN(Cc4ccccn4)C3)ccc2c1 (stereo not drawn)
IC50 (cells): 5.03 µM (active)

CN(C)c1ccc(/C=N/NC(=O)c2ccnn2C)cc1
EC50 [1]: 1.32 µM (active)
EC50 [2]: 6.24 µM (active)

CC1(C)CO[C@H](CC(=O)O)CN1
AC50 (Cytochrome P450 2C9): 39.8 µM (inconclusive)
AC50 (Cytochrome P450 1A2): 31.6 µM (inconclusive)

COCc1c(C(N)=O)nnn1-c1nonc1N
AC50 (Cytochrome P450 1A2): 25.1 µM (inconclusive)

COc1ccc(-c2nnc(-c3ccccc3)o2)cc1OC
EC50 [1]: 72.5 µM (active)
EC50 [2]: > 112 µM (not active)

Cn1c(=O)c2[nH]c(SCCN3CCOCC3)nc2n(C)c1=S
AC50 (Cytochrome P450 3A4): 3.16 µM (inconclusive)
AC50 (Cytochrome P450 2C9): 6.31 µM (inconclusive)
AC50 (Cytochrome P450 1A2): 0.631 µM (inconclusive)

O=C(Nc1ccccc1)N1CC[C@@]2(CCCN(C(=O)c3cccc(F)c3)C2)C1
AC50 (Cytochrome P450 3A4): 25.1 µM (inconclusive)
